# Peptide text beside a SMILES is read from it.
# What was measured:
# [1] = test system: CTL, Th and NK cells; test: Immune cell activation in PBMCs, flow cytometry; format: cell-based, human; conditions: 0.1 and 1.0 µg/mL, 48 h, 5 independent experiments
# Experimental: Immunological tests were conducted on human peripheral blood mononuclear cells, isolated from “buffy coats” using a ficoll density gradient (Histopaque, Sigma-Aldrich, St. Louis, MO, USA). Buffy coats for were obtained from blood of healthy anonymous donors of the Regional Center of Blood Donation and Blood Therapy in Gdansk, Poland. After washing in PBS, erythrocyte lysis, and cell counting (cell counter, Bio-Rad), the PBMCs were seeded onto a 24-well culture plate at a density of 10^6 cells/1 mL of RPMI 1640 (Penicillin/Streptomycin, 10% FBS) per well. After cell resting for 24 h, cells were stimulated with IM peptide (0.1 µg/mL and 1.0 µg/mL) for the next 48 h under appropriate conditions (37 °C, 5% CO2). The untreated cells were used as a negative control, whereas cells stimulated with LPS (1 µg/mL) and PHA (2.5 µg/mL) were a positive control. After incubation, the PBMCs were collected, washed with PBS, counted and prepared for flow cytometry analysis. 10^4 cells/100 µl were stained with monoclonal, fluorochrome-conjugated antibodies (anti-CD3, -CD4, -CD8, -CD16, -CD56, -CD25, -CD69, -CD71, -HLA-DR, -CD11c, -CD80, and -CD83) and incubated for 30 min in RT in the dark. Stained cells were analyzed using a flow cytometer (LSRFortessa, BD, USA). All data are presented as percentages due to the application of hospital diagnostic laboratory standards for immune cells analyses.
# [2] = test system: ASCs from donor 6; test: RNA sequencing with ingenuity pathway analysis (IPA); format: cell-based, human; conditions: ASCs donor 6, 0.1 µg/mL IM
# Experimental: Cell stimulation was performed as previously described. Primary fibroblasts after the third passage and ASCs after the second passage were cultured in appropriate DMEM medium supplemented with 10% FBS for 24 h. Then, the medium was changed for DMEM with 5% FBS and 24-h incubation was performed. After another medium change for serum-free, cells were stimulated with IM peptide (0.1 µg/mL) for 48 h. Cell cultures deprived of FBS for 48 h were used as a control. After stimulation, the cells were trypsinized, collected, and centrifuged, and the pellet was kept frozen (−80 °C) for transcriptome analysis and transcript level analysis.
# For three plastic surgery donors (donor 6, donor 11, and donor 12) ASCs (3–4.5 × 10^5 cells) after passage P2, namely cultures stimulated for 48 h with 0.1 µg/mL IM, or control cultured with FBS-deprived medium, were trypsinized, washed, and snap frozen for transcriptome analysis (see Supplementary Table S5 for clinical information). The pellets were stored at −80 °C prior to RNA isolation. RNA was isolated using a miRNeasy Mini Kit (Qiagen, Hilden, Germany) with two modifications of the original protocol: (i) chloroform was substituted with 1-bromo-3-chloropropane to prevent foaming and emulsification, and (ii) the elution was done with 40 µl of water followed by another elution with the entire volume of the original eluate. The quality and concentration of RNA was assessed using a Bioanalyzer 2100 Instrument and RNA 6000 Nano Kit (Agilent, Waldbronn, Germany). The average RNA yield was 2 µg. Samples with RIN (RNA Integrity Number) >8.0 were used for further transcriptome analysis.
# A ribosome reduction kit (Arraystar Inc, Rockville, MD, USA) and SureSelect Strand Specific mRNA library kit (Agilent, Santa Clara, CA, USA) were used for next generation sequencing (NGS) library preparation according to standard procedures. The cDNA libraries were quantitated using qPCR in a Roche LightCycler 480 with the Kapa Library Quantification Kit for Illumina platforms (Kapa Biosystems, Woburn, MA, USA). Onboard cluster generation and 50 nt paired end RNA sequencing were performed on an Illumina HiSeq2500 device using Rapid Run v2 sequencing chemistry and flow cells as recommended by the manufacturer (Illumina Inc., San Diego, CA, USA). Paired end 50 bp sequencing runs were completed and the data was converted to the FASTQ Sanger format. Trim Galore was used to remove residual adapter sequences from the reads (https://www.bioinformatics.babraham.ac.uk). Sequencing reads were aligned to the human reference genome assembly (hg19) using TopHat. Further analysis was performed according to workflow for Cufflinks version 2.2.0 and higher. Transcript assembly and estimation of the relative abundances were carried out with Cufflinks using the following settings: Quartile normalization method for the libraries, blind dispersion method for replicates, and biased correction using canonical hg19 as reference. Cuffmerge and Cuffquant were then performed, followed by final comparison analysis in Cuffdiff. […] Differentially expressed genes (DGE) were grouped in functional pathways using ingenuity pathway analysis (IPA Spring Release 2017, QIAGEN, Hilde, Germany) on a gene level, using RefSeq annotation.
# [3] = 48 h vs FBS-deprived medium, IPA disease and function mode
smiles,measurement,setting,value
"CC(C)[C@H](NC(=O)[C@H](CCCCN)NC(=O)[C@H](CC(=O)O)NC(=O)[C@@H](N)CCCNC(=N)N)C(=O)N[C@@H](Cc1ccc(O)cc1)C(=O)N[C@@H](CCCNC(=N)N)C(=O)O [IM, H-Arg-Asp-Lys-Val-Tyr-Arg-OH] (H-RDKVYR-OH)","immunogenic properties (activation of CTL, Th, NK)",[1],no immunogenic properties
same,consistency score of the IPA regulatory network,"[2]; 48 h, highest consistency score (Figure S10A)",29.69
same,Predicted Direction of Change: Activation of cells,[2]; [3],Activation
same,Predicted Direction of Change: Binding of neutrophils,[2]; [3],Activation
same,Predicted Direction of Change: Cell migration of granulocytes,[2]; [3],Activation
same,Predicted Direction of Change: Cell migration of neutrophils,[2]; [3],Activation
same,Predicted Direction of Change: Cell movements,[2]; [3],Activation
same,Predicted Direction of Change: Chemotaxis,[2]; [3],Activation
same,Predicted Direction of Change: Immune response,[2]; [3],Activation
same,Predicted Direction of Change: Migration of cells,[2]; [3],Activation
same,Predicted Direction of Change: Migration of endothelium cells,[2]; [3],Activation
same,Predicted Direction of Change: Permeability of endothelium cells,[2]; [3],Activation
same,Predicted Direction of Change: RNA transactivation,[2]; [3],Activation
same,Predicted Direction of Change: Secretion of lipids,[2]; [3],Activation
same,Predicted Direction of Change: Synthesis of fatty acids,[2]; [3],Activation
same,Predicted Direction of Change: Synthesis of nitric oxide,[2]; [3],Activation

# Source: PMC7355430, “Imunofan—RDKVYR Peptide—Stimulates Skin Cell Proliferation and Promotes Tissue Repair” (Molecules, 2020)
